# Data as given in patent publication US6632981B1, “DNA sequences encoding polypeptides having beta-1,3-glucanase activity” (Novartis Finance Corporation, priority 1988, dated 2003).
# Assays:
# chimeric PR-1a/GUS gene [1] = test: Chemical induction of chimeric PR-1a/GUS gene in transgenic tobacco plants, β-glucuronidase assay of leaf extracts; type: in vivo, Nicotiana tabacum
# Description: A. Gene expression is induced in plants obtained according to previously described procedures by applying a fine spray of a solution of 0.1 to 50 mM salicylic acid which has been adjusted to a pH between 6.0 and 8.0 with NaOH, to the leaves using a plant mister.
# The plants are allowed to continue to grow for two days and are then harvested, frozen in liquid nitrogen and stored at −80° C. until they are assayed as described in Example 65 and/or Example 66.
# B. Alternatively, the following solutions are used for induction:
# (§1) (3) Methyl benzo-1,2,3-thiadiazole-7-carboxylate. The solution is made by resuspending a wettable powder containing the chemical in sterile water for several minutes at a concentration of 1 mg/ml. Insoluble solid is removed from the solution by filter sterilizing.
# Frozen leaf tissue is ground in a mortar with a pestle in the presence of liquid nitrogen to produce a fine powder. Leaf extracts are prepared by mixing a given weight (g) with an equal volume (ml) of GUS extraction buffer (50 mM sodium phosphate buffer pH 7.0, 0.1% Triton-X 100, 0.1% sarkosyl, 10 mM β-mercaptoethanol) as described by Jefferson, R. A. et al., Proc. Natl. Acad. Sci. USA 83: 8447-8451 (1986).
# (§2) The reactions are carried out in the wells of ELISA plates by mixing 5-25 l extract with 120-100 l GUS assay buffer (50 mM sodium phosphate buffer pH 7.0, 0.1% Triton X-100, 10 mM β-mercaptoethanol) containing 4-methyl umbelliferyl glucuronide (MU) at a final concentration of 2 mM in a total volume of 125 l. The plate is incubated at 37° C. for 1-5 hours and the reaction is stopped by the addition of 150 l 3 M Na2CO3. The concentration of fluorescent indicator released is determined by reading the plate on a Flow Labs Fluoroskan II ELISA plate reader.
# chimeric PR-1a/GUS gene [2] = test: GUS induction in transformed tobacco callus; type: cell-based, Nicotiana tabacum; details: tobacco callus transformed with CIB271; 50 mM spray; harvested 21 hours after treatment; H2O spray 1.8
# Description: Agrobacterium strains containing the appropriate vectors are used to transform callus forming from the leaf disks (Example 112). Callus forming on kanamycin-containing MSBN selection medium is maintained on a callus growth medium comprised of MS major, minor salts and Fe-EDTA (Gibco #500-1117; 4.3 g/l), MS vitamins, 100 mg/l myo-inositol, 20 g/l sucrose, 2 mg/l naphthaleneacetic acid and 0.3 mg/l kinetin.
# The callus can be used to regenerate transgenic plants by transferring callus pieces to MSBN medium and following methods described in Examples 111 and 112. The callus is also used to measure gene induction following application of inducing chemicals and to screen for gene inducing chemicals.
# A. Callus obtained according to previously described procedures is assayed for chemical induction by applying with a sterile paint brush or a plant mister a filter sterilized solution of 0.1 to 50 mM salicylic acid which has been adjusted to a pH between 6.0 and 8.0 by the addition of NaOH. […]
# as §1
# Frozen leaf tissue is ground in a mortar with a pestle in the presence of liquid nitrogen to produce a fine powder. […]
# as §2, with “The plate is incubated at 37° C. for 1-5 hours and the reaction is stopped by the addition of 150 l 3 M Na2CO3.” left out, “reader. […]” for “reader.”
# endogenous PR-1a gene = test: Assay for chemical induction of the endogenous PR-1a gene (mRNA, primer extension); type: in vivo; details: tobacco plant materials, control procedure
# Description: 50 g of total RNA is lyophilized in a 500 l Eppendorf tube. The RNA is resuspended in 30 l of radiolabeled probe solution and heated to 70′ C. for 10 minutes. The tube is slowly cooled to 37° C. and allowed to incubate overnight. Without removing the tube from the 37° C. water bath, 2 l of 10×reverse-transcriptase buffer (500 mM Tris-HCl, pH 7.5, 400 mM KCl, 30 mM MgCl2), 1 l 5 mg/ml bovine serum albumin, 5 l 100 mM dithiothreitol, 5 l 10×dNTPs (10 mM of each dNTP in H2O), 3 l H 20, 2 l RNasin (80 units), and 2 l reverse transcriptase (400 units) are added and the reaction is incubated at 37° C. for 30 minutes. To stop the reaction, 5 l of 3 M sodium acetate, pH 5, and 150 l absolute ethanol are added. The tube is left at −20° C. for 30 minutes, the precipitate is collected by centrifugation, washed with 80% ethanol and allowed to air-dry. The precipitate is resuspended in 10-20 l of loading dye (90% formamide, 0.05% bromophenol blue, 0.05% xylene cyanol, 1 mM EDTA) and the extension products are separated on a 6% sequencing gel (Maniatis, T. et al., supra). Extension products are visualized by autoradiography.
# As a control procedure, tobacco plant materials induced as described in Examples 139-141 by salicylic acid, methyl benzo-1,2,3-thiadiazole-7-carboxylate and TMV are assayed for transcription of mRNA from the endogenous PR-1a gene by the methods described in Example 6.
smiles,measurement,setting,value
"O=C(O)c1ccccc1O [Salicylic acid, salicylic acid]",Specific Activity nKat MU/mg protein,"chimeric PR-1a/GUS gene [1]; tobacco plant Alu 1 (CIB272), water 5.6, buffer 20.5",20.0 nKat MU/mg protein
same,Specific Activity nKat MU/mg protein,"chimeric PR-1a/GUS gene [1]; tobacco plant Alu 2 (CIB272), water 2.0, buffer 8.9",6.6 nKat MU/mg protein
same,Specific Activity nKat MU/mg protein,"chimeric PR-1a/GUS gene [1]; tobacco plant Alu 3 (CIB272), water 0.1, buffer 2.0",2.8 ± .9 nKat MU/mg protein
same,Specific Activity nKat MU/mg protein,"chimeric PR-1a/GUS gene [1]; tobacco plant Alu 4 (CIB272), water 2.1, buffer 6.1",43.0 ± 19 nKat MU/mg protein
same,Specific Activity nKat MU/mg protein,"chimeric PR-1a/GUS gene [1]; tobacco plant Alu 5 (CIB272), water 0.6, buffer 0.5",4.4 ± 2.3 nKat MU/mg protein
same,Specific Activity nKat MU/mg protein,"chimeric PR-1a/GUS gene [1]; tobacco plant Alu 6 (CIB272), water 0.8, buffer 3.1",28.8 nKat MU/mg protein
same,Specific Activity nKat MU/mg protein,"chimeric PR-1a/GUS gene [1]; tobacco plant Alu 7 (CIB272), water 1.7, buffer 21.7",38.7 nKat MU/mg protein
same,Specific Activity nKat MU/mg protein,"chimeric PR-1a/GUS gene [1]; tobacco plant Alu 8 (CIB272), water 0.6, buffer 0.6",0.4 nKat MU/mg protein
same,Specific Activity nKat MU/mg protein,"chimeric PR-1a/GUS gene [1]; tobacco plant Alu 9 (CIB272), water 0.9, buffer 0.3",0.6 nKat MU/mg protein
same,Specific Activity nKat MU/mg protein,"chimeric PR-1a/GUS gene [1]; tobacco plant Alu 10 (CIB272), water 4.0, buffer 8.1",39.2 nKat MU/mg protein
same,Specific Activity nKat MU/mg protein,"chimeric PR-1a/GUS gene [1]; tobacco plant Alu 11 (CIB272), water 1.6, buffer 2.2",1.9 ± .9 nKat MU/mg protein
same,Specific Activity nKat MU/mg protein,"chimeric PR-1a/GUS gene [1]; tobacco plant Alu 12 (CIB272), water 0.7, buffer 2.3",57.1 ± 22 nKat MU/mg protein
same,Specific Activity nKat MU/mg protein,"chimeric PR-1a/GUS gene [1]; tobacco plant Alu 13 (CIB272), water 0.1, buffer 1.9",19.1 nKat MU/mg protein
same,Specific Activity nKat MU/mg protein,"chimeric PR-1a/GUS gene [1]; tobacco plant H 1 (CIB271), water 5.39, buffer 20.1",13.9 ± 1.2 nKat MU/mg protein
same,Specific Activity nKat MU/mg protein,"chimeric PR-1a/GUS gene [1]; tobacco plant H 3 (CIB271), water 0.21, buffer 1.66",6.92 ± 0.88 nKat MU/mg protein
same,Specific Activity nKat MU/mg protein,"chimeric PR-1a/GUS gene [1]; tobacco plant H 4 (CIB271), water 8.39, buffer 2.28",27.5 ± 0.7 nKat MU/mg protein
same,Specific Activity nKat MU/mg protein,"chimeric PR-1a/GUS gene [1]; tobacco plant H 6 (CIB271), water 0.10, buffer 0.09",4.08 ± 0.58 nKat MU/mg protein
same,Specific Activity nKat MU/mg protein,"chimeric PR-1a/GUS gene [1]; tobacco plant H 9 (CIB271), water 0.23, buffer 0.5",10.8 nKat MU/mg protein
same,Specific Activity nKat MU/mg protein,"chimeric PR-1a/GUS gene [1]; tobacco plant Hae 1 (CIB273), water 0.6, buffer 1.7",1.6 nKat MU/mg protein
same,Specific Activity nKat MU/mg protein,"chimeric PR-1a/GUS gene [1]; tobacco plant Hae 2 (CIB273), water 2.3, buffer 0.4",8.8 nKat MU/mg protein
same,Specific Activity nKat MU/mg protein,"chimeric PR-1a/GUS gene [1]; tobacco plant Hae 3 (CIB273), water 1.7, buffer 3.0",11.1 nKat MU/mg protein
same,Specific Activity nKat MU/mg protein,"chimeric PR-1a/GUS gene [1]; tobacco plant Hae 4 (CIB273), water 2.0, buffer 1.7",8.1 nKat MU/mg protein
same,Specific Activity nKat MU/mg protein,"chimeric PR-1a/GUS gene [1]; tobacco plant Hae 5 (CIB273), water 18.1, buffer 36.6",59.4 nKat MU/mg protein
same,Specific Activity nKat MU/mg protein,"chimeric PR-1a/GUS gene [1]; tobacco plant Hae 8 (CIB273), water 0.4, buffer 0.6",30.6 nKat MU/mg protein
same,Specific Activity nKat MU/mg protein,"chimeric PR-1a/GUS gene [1]; tobacco plant Hae 9 (CIB273), water 2.6, buffer 12.5",63.9 nKat MU/mg protein
same,Specific Activity nKat MU/mg protein,"chimeric PR-1a/GUS gene [1]; tobacco plant Hae 10 (CIB273), water 1.6, buffer 13.5",70.5 nKat MU/mg protein
same,Specific Activity nKat MU/mg protein,"chimeric PR-1a/GUS gene [1]; tobacco plant Hae 11 (CIB273), water 2.6, buffer 3.9",81.8 nKat MU/mg protein
same,Specific Activity nKat MU/mg protein,"chimeric PR-1a/GUS gene [1]; tobacco plant Hae 12 (CIB273), water 0.2, buffer 0.6",2.5 nKat MU/mg protein
same,Specific Activity nKat MU/mg protein,"chimeric PR-1a/GUS gene [1]; tobacco plant Hae 13 (CIB273), water 0.01, buffer nd",0.7 nKat MU/mg protein
same,Specific Activity nKat MU/mg protein,"chimeric PR-1a/GUS gene [1]; tobacco plant Hae 14 (CIB273), water 0.1, buffer 0.1",1.8 nKat MU/mg protein
same,Specific Activity nKat MU/mg protein,"chimeric PR-1a/GUS gene [1]; tobacco plant Hae 15 (CIB273), water 0.1, buffer 3.4",6.4 nKat MU/mg protein
same,Specific Activity nKat MU/mg protein,"chimeric PR-1a/GUS gene [1]; tobacco plant Hae 16 (CIB273), water 0.1, buffer 0.8",2.3 nKat MU/mg protein
same,GUS activities,chimeric PR-1a/GUS gene [2],3.8 nKat MU/mg protein
same,transcription of mRNA from the endogenous PR-1a gene,endogenous PR-1a gene,Elevated levels of mRNA
